In US8575156B2, “Cyclic inhibitors of 11β-hydroxysteroid dehydrogenase 1” (Vitae Pharmaceuticals, Inc., priority 2007, dated 2013) one finds IC50 and inhibition data, which are given here for 28 compounds.

The target in this experiment is 11β-HSD1 (Homo sapiens, UniProt P28845). As to the kind of experiment: biochemical. The conditions noted are these: for IC50: IC50 Range, Biological Test Example 1, microsomes from CHO cells overexpressing human 11β-HSD1; for inhibition at 0.1 µM: read-out: Average % inhibition at 100 nM, Biological Test Example 1, 100 nM.
Sequence of 11β-HSD1 (P28845 whole entry): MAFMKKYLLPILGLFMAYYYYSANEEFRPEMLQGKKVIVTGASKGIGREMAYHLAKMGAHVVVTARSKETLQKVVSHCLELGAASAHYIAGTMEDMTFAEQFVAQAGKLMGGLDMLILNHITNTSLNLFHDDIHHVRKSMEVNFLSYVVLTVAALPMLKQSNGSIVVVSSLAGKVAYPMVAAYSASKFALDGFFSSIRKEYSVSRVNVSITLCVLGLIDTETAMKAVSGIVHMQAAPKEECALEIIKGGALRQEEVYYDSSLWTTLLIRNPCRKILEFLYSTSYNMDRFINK

For the compound `C[C@@H](c1ccc(-c2ccc(F)cc2)cc1)N1CC[C@](CCN2CCOCC2)(c2ccccc2)OC1=O` [EXAMPLE 491, (R)-3-((S)-1-(4′-fluorobiphenyl-4-yl)ethyl)-6-(2-morpholinoethyl)-6-phenyl-1,3-oxazinan-2-one], the IC50 is less than 100 nM and the inhibition at 0.1 µM was 99.3%.

Turning to `C[C@@H](c1ccc(-c2ccc(F)cc2F)cc1)N1CC[C@](CCCOP(=O)(O)O)(c2ccccc2)OC1=O` [EXAMPLE 492, 3-((R)-3-((S)-1-(2′,4′-difluorobiphenyl-4-yl)ethyl)-2-oxo-6-phenyl-1,3-oxazinan-6-yl)propyl dihydrogen phosphate], the IC50 was less than 100 nM and the inhibition at 0.1 µM was found to be 87.7%. On the same counts, the results for `C[C@@H](c1ccc(-c2cccc(CN)c2)cc1)N1CC[C@](CCCO)(c2ccccc2)OC1=O` [EXAMPLE 493, (R)-3-((S)-1-(3′-(aminomethyl)biphenyl-4-yl)ethyl)-6-(3-hydroxypropyl)-6-phenyl-1,3-oxazinan-2-one] are less than 100 nM and 89.1%. For the compound `C[C@@H](c1ccc(-c2ccc(CO)cc2)cc1)N1CC[C@](CCCO)(c2ccccc2)OC1=O` [EXAMPLE 494, (R)-3-((S)-1-(4′-(hydroxymethyl)biphenyl-4-yl)ethyl)-6-(3-hydroxypropyl)-6-phenyl-1,3-oxazinan-2-one], the IC50 was less than 100 nM and the inhibition at 0.1 µM came out at 100%.

Take `C[C@@H](c1ccc(-c2ccc(CN)cc2)cc1)N1CC[C@](CCCO)(c2ccccc2)OC1=O` [EXAMPLE 495, (R)-3-((S)-1-(4′-(aminomethyl)biphenyl-4-yl)ethyl)-6-(3-hydroxypropyl)-6-phenyl-1,3-oxazinan-2-one]: the IC50 is less than 100 nM and the inhibition at 0.1 µM is 95.8%. On the same counts, the results for `C[C@@H](c1ccc(Cl)c(F)c1)N1CC[C@](CCCO)(c2ccc(F)cc2)OC1=O` [EXAMPLE 498, (R)-3-((S)-1-(4-chloro-3-fluorophenyl)ethyl)-6-(4-fluorophenyl)-6-(3-hydroxypropyl)-1,3-oxazinan-2-one] are less than 100 nM and 97.8%. As to `C[C@@H](c1ccc(Br)cc1)N1CC[C@](CC2(O)CC2)(c2ccc(F)cc2)OC1=O` [EXAMPLE 500, (S)-3-((S)-1-(4-bromophenyl)ethyl)-6-(4-fluorophenyl)-6-((1-hydroxycyclopropyl)methyl)-1,3-oxazinan-2-one], the IC50 was less than 100 nM and the inhibition at 0.1 µM was 98.2%. Turning to `C[C@@H](c1ccc(-c2ccc(F)cc2F)cc1)N1CC[C@](CCC(=O)O)(c2ccccc2)OC1=O` [EXAMPLE 503, 3-((R)-3-((S)-1-(2′,4′-difluorobiphenyl-4-yl)ethyl)-2-oxo-6-phenyl-1,3-oxazinan-6-yl)propanoic acid], the IC50 was less than 100 nM and the inhibition at 0.1 µM came out at 90.1%.

On to `C[C@@H](c1ccc(OCC(F)(F)F)cc1)N1CC[C@](CCC(N)=O)(c2ccc(F)cc2)OC1=O` [EXAMPLE 505, 3-((R)-6-(4-fluorophenyl)-2-oxo-3-((S)-1-(4-(2,2,2-trifluoroethoxy)phenyl)ethyl)-1,3-oxazinan-6-yl)propanamide], for which the IC50 was less than 100 nM and the inhibition at 0.1 µM amounted to 96.3%.

Regarding `CC(=O)N(C)CCC[C@]1(c2ccccc2)CCN([C@@H](C)c2ccc(Br)cc2)C(=O)O1` [EXAMPLE 506, N-(3-((R)-3-((S)-1-(4-bromophenyl)ethyl)-2-oxo-6-phenyl-1,3-oxazinan-6-yl)propyl)-N-methylacetamide], the IC50 is less than 100 nM and the inhibition at 0.1 µM stood at 97.7%. In the case of `C[C@@H](c1ccc(Br)cc1)N1CC[C@](CCNS(C)(=O)=O)(c2ccccc2)OC1=O` [EXAMPLE 507, N-(2-((S)-3-((S)-1-(4-bromophenyl)ethyl)-2-oxo-6-phenyl-1,3-oxazinan-6-yl)ethyl)methanesulfonamide], the IC50 is less than 100 nM and the inhibition at 0.1 µM was 96.1%. Take `C[C@@H](c1ccc(Br)cc1)N1CC[C@](CCN2CCCS2(=O)=O)(c2ccccc2)OC1=O` [EXAMPLE 513, (S)-3-((S)-1-(4-bromophenyl)ethyl)-6-(2-(1-dioxo-isothiazolidin-2-yl)ethyl)-6-phenyl-1,3-oxazinan-2-one]: the IC50 is less than 100 nM and the inhibition at 0.1 µM was 84.4%. With `C[C@@H](c1ccc(Br)cc1)N1CC[C@](CCCN(C)S(C)(=O)=O)(c2ccccc2)OC1=O` [EXAMPLE 514, N-(3-((R)-3-((S)-1-(4-bromophenyl)ethyl)-2-oxo-6-phenyl-1,3-oxazinan-6-yl)propyl)-N-methylmethanesulfonamide], the IC50 is less than 100 nM and the inhibition at 0.1 µM turned out to be 93.1%. On to `CC(C#N)C[C@]1(c2ccc(F)cc2)CCN([C@@H](C)c2ccc(Br)cc2)C(=O)O1` (stereo partly drawn) [EXAMPLE 520, 3-((R)-3-((S)-1-(4-bromophenyl)ethyl)-6-(4-fluorophenyl)-2-oxo-1,3-oxazinan-6-yl)-2-methylpropanenitrile], for which the IC50 was less than 100 nM and the inhibition at 0.1 µM was 98%. `C[C@@H](c1ccc(Br)cc1)N1CC[C@](CC(C)(C)C(N)=O)(c2ccc(F)cc2)OC1=O` [EXAMPLE 522, 3-((R)-3-((S)-1-(4-bromophenyl)ethyl)-6-(4-fluorophenyl)-2-oxo-1,3-oxazinan-6-yl)-2,2-dimethylpropanamide]: the IC50 is less than 100 nM and the inhibition at 0.1 µM came out at 97.5%. On the same counts, the results for `C[C@@H](c1ccc(Br)cc1)N1CC[C@](CCC#N)(c2ccc(F)cc2)OC1=O` [EXAMPLE 524, 3-((R)-3-((S)-1-(4-bromophenyl)ethyl)-6-(4-fluorophenyl)-2-oxo-1,3-oxazinan-6-yl)propanenitrile] are less than 100 nM and 97.9%. `C[C@@H](c1ccc(Br)cc1)N1CC[C@](CCC(=O)O)(c2ccc(F)cc2)OC1=O` [EXAMPLE 526, 3-((R)-3-((S)-1-(4-bromophenyl)ethyl)-6-(4-fluorophenyl)-2-oxo-1,3-oxazinan-6-yl)propanoic acid]: the IC50 was less than 100 nM and the inhibition at 0.1 µM came to 54.6%. As for `C[C@@H](c1ccc(Br)cc1)N1CC[C@](CC(=O)CO)(c2ccc(F)cc2)OC1=O` [EXAMPLE 527, (S)-3-((S)-1-(4-bromophenyl)ethyl)-6-(4-fluorophenyl)-6-(3-hydroxy-2-oxopropyl)-1,3-oxazinan-2-one], the IC50 was less than 100 nM and the inhibition at 0.1 µM is 89.7%. As to `C[C@@H](c1ccc(Br)cc1)N1CC[C@](CC(C)(C)CO)(c2ccc(F)cc2)OC1=O` [EXAMPLE 528, (R)-3-((S)-1-(4-bromophenyl)ethyl)-6-(4-fluorophenyl)-6-(3-hydroxy-2,2-dimethylpropyl)-1,3-oxazinan-2-one], the IC50 is less than 100 nM and the inhibition at 0.1 µM was 98.6%. For `C[C@@H](c1ccc(Br)cc1)N1CC[C@](CCN(C)S(C)(=O)=O)(c2ccccc2)OC1=O` [EXAMPLE 529, N-(2-((S)-3-((S)-1-(4-bromophenyl)ethyl)-2-oxo-6-phenyl-1,3-oxazinan-6-yl)ethyl)-N-methylmethanesulfonamide], the IC50 is less than 100 nM and the inhibition at 0.1 µM amounted to 93.7%. Regarding `Cc1nnc(C[C@]2(c3ccccc3)CCN([C@@H](C)c3ccc(Br)cc3)C(=O)O2)o1` [EXAMPLE 530, (S)-3-((S)-1-(4-bromophenyl)ethyl)-6-((5-methyl-1,3,4-oxadiazol-2-yl)methyl)-6-phenyl-1,3-oxazinan-2-one], the IC50 was less than 100 nM and the inhibition at 0.1 µM was determined as 73.3%. On the same counts, the results for `Cc1nnc(C[C@]2(c3ccccc3)CCN([C@@H](C)c3ccc(Br)cc3)C(=O)O2)s1` [EXAMPLE 531, (S)-3-((S)-1-(4-bromophenyl)ethyl)-6-((5-methyl-1,3,4-thiadiazol-2-yl)methyl)-6-phenyl-1,3-oxazinan-2-one] are less than 100 nM and 73.5%. On the same counts, the results for `C[C@@H](c1ccc(C(F)(F)F)cc1)N1CC[C@](CCCO)(c2ccccc2)OC1=O` [EXAMPLE 532, (R)-6-(3-hydroxypropyl)-6-phenyl-3-((S)-1-(4-(trifluoromethyl)phenyl)ethyl)-1,3-oxazinan-2-one] are less than 100 nM and 96.3%. With `C[C@@H](c1ccc(Cl)c(F)c1)N1CC[C@](CCO)(c2ccc(F)cc2)OC1=O` [EXAMPLE 533, (S)-3-((S)-1-(4-chloro-3-fluorophenyl)ethyl)-6-(4-fluorophenyl)-6-(2-hydroxyethyl)-1,3-oxazinan-2-one], the IC50 was less than 100 nM and the inhibition at 0.1 µM was found to be 94.5%. Regarding `C[C@@H](c1ccc(Cl)cc1F)N1CC[C@](CCCO)(c2ccc(F)cc2)OC1=O` [EXAMPLE 534, (R)-3-((S)-1-(4-chloro-2-fluorophenyl)ethyl)-6-(4-fluorophenyl)-6-(3-hydroxypropyl)-1,3-oxazinan-2-one], the IC50 is less than 100 nM and the inhibition at 0.1 µM is 98.5%. Take `C[C@@H](c1ccc(Cl)c(F)c1)N1CC[C@](CCCNS(C)(=O)=O)(c2ccc(F)cc2)OC1=O` [EXAMPLE 535, N-(3-((R)-3-((S)-1-(4-chloro-3-fluorophenyl)ethyl)-6-(4-fluorophenyl)-2-oxo-1,3-oxazinan-6-yl)propyl)methanesulfonamide]: the 50% inhibitory concentration (IC50) is less than 100 nM and the inhibition at 0.1 µM was 96.8%. For `CC[C@@H](c1ccc(OC(F)F)cc1)N1CC[C@](CCC(N)=O)(c2ccccc2)OC1=O` [EXAMPLE 537, 3-((R)-3-((S)-1-(4-(difluoromethoxy)phenyl)propyl)-2-oxo-6-phenyl-1,3-oxazinan-6-yl)propanamide], the IC50 was less than 100 nM and the inhibition at 0.1 µM is 94.7%. With `Cc1cc(-c2ccc([C@H](C)N3CC[C@](CC(C)(C)O)(c4ccc(F)cc4)OC3=O)cc2)cc(C)[n+]1[O-]` [EXAMPLE 557, 4-(4-((S)-1-((S)-6-(4-fluorophenyl)-6-(2-hydroxy-2-methylpropyl)-2-oxo-1,3-oxazinan-3-yl)ethyl)phenyl)-2,6-dimethylpyridine 1-oxide], the inhibition at 0.1111 µM (read-out: Average % inhibition at 111.1 nM, Biological Test Example 1, 111.1 nM) worked out at 89.7%.
